Legend:
Format in all cases: biochemical
[1] = molecular target: T1, trypsin, type IX from porcine pancreas (Sus scrofa, UniProt P00761); experiment: Trypsin Assay; details: substrate L-BAPNA, 60 min room temperature, OD 405 nm; read-out: Trpysin II IC50
T1 construct: purchased Sigma, St. Louis Mo; host or cells: porcine pancreas
Description: 5 ug/ml trypsin, type IX from porcine pancreas and 0.375 mM N-α-Benzoyl-L-arginine-p-nitroanilide (L-BAPNA) are added to a 96-well assay plate containing either inhibitor or buffer (50 mM Tris-HCl, pH 8.0, 100 mM NaCl, 0.1% BSA). The reactions, in a final volume of 100 ul are measured immediately at 405 nm to determine background absorbance. The plate is incubated at room temperature for 60 min, at which time the rate of hydrolysis of the substrate is measured by monitoring the reaction at 405 nm for the release of p-nitroaniline. Percent inhibition of trypsin activity is calculated from OD405nm value from the experimental and control sample.
Recombinant soluble TF, consisting of amino acids 1-219 of the mature protein sequence was expressed in E. coli and purified using a Mono Q Sepharose FPLC. Recombinant human VIIa was purchased from American Diagnostica, Greenwich Conn. and chromogenic substrate N-Methylsulfonyl-D-phe-gly-arg-p-nitroaniline was prepared by American Peptide Company, Inc., Sunnyvale, Calif. Factor Xa was obtained from Enzyme Research Laboratories, South Bend Ind., thrombin from Calbiochem, La Jolla, Calif., and trypsin and L-BAPNA from Sigma, St. Louis Mo. The chromogenic substrates S-2765 and S-2238 were purchased from Chromogenix, Sweden.

[2] = molecular target: T2, recombinant soluble tissue factor and recombinant human factor VIIa (TF-VIIA) (Homo sapiens, UniProt P08709); experiment: TF-VIIa Assay; details: chromogenic substrate N-Methylsulfonyl-D-phe-gly-arg-p-nitroaniline, 60 min room temperature, OD 405 nm
T2 construct: conversion of coagulation factor VII to VIIa by Xa; purchased American Diagnostica, Greenwich Conn; (VIIa); soluble TF made in house in E. coli; host or cells: E. coli (soluble TF)

human thrombin = human thrombin (Homo sapiens, UniProt P00734); experiment: Thrombin Assay; details: substrate H-D-Phenylalanyl-L-pipecolyl-L-arginine-p-nitroaniline, 60 min room temperature, OD 405 nm; read-out: Thrombin II IC50

T1 sequence (P00761 9-231): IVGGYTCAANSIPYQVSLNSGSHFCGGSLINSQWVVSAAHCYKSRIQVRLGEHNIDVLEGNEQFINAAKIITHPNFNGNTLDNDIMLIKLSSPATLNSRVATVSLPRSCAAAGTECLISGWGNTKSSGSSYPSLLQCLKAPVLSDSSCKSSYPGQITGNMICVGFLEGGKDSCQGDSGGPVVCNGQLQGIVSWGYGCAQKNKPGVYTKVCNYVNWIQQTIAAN
T2 sequence (P08709 213-466 limits assumed): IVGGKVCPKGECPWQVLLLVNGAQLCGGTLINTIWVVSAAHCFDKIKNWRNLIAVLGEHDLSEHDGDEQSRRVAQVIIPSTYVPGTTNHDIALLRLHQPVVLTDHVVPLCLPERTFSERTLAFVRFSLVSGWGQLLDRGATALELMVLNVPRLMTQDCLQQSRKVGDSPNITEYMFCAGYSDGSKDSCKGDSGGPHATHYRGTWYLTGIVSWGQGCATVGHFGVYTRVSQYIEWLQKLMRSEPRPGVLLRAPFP
T2 sequence (P08709 61-212 limits assumed): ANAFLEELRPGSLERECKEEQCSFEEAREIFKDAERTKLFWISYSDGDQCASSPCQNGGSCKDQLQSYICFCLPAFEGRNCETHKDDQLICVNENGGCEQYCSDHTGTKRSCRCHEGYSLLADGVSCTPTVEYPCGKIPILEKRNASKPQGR
T2 sequence (P13726 33-251 partner limits assumed): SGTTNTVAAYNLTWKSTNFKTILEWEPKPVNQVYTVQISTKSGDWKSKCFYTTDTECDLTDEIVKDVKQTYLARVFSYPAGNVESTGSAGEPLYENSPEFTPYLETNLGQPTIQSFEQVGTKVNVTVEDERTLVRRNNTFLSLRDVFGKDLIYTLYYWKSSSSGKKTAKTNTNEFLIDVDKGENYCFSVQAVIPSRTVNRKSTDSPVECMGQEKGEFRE

Row | IC50 [1] [µM] | IC50 [2] [µM] | IC50 (human thrombin) [µM] | Structure (SMILES)
1 | 0.11 |  |  | CC(C)NC1=CC(=O)C(c2ccccc2)=C(CC(=O)NCc2ccc(C(=N)N)cc2)C1=O [Example 1]
2 | 0.74 | 1.3 | 0.96 | N=C(N)c1ccc(CNC(=O)CC2=C(c3ccccc3)C(=O)C=C(NCCc3ccccc3)C2=O)cc1 [Example 2]

From patent US6686484B2, “Polycyclic aryl and heteroaryl substituted 1,4-quinones useful for selective inhibition of the coagulation cascade” (Pharmacia Corporation, priority 2000, dated 2004)
